Measured values reported in US20240025907A1, “QUINAZOLINE PAN-KRas INHIBITORS” (Mirati Therapeutics, Inc., priority 2022, published 2024).
Where two headings read alike, the source gives them in different places.

Columns and labels:
KRas^G12D = target: T1, KRas^G12D (Homo sapiens, UniProt P01116, G12D); assay: KRas TR-FRET tracer displacement binding assay, G12D; details: 60-minute incubation
T1 construct: Biotinylated KRas (corresponding to amino acids 1-169, produced at Accelegan Inc.); biotin (biotinylated); purchased Accelegan Inc
T1 sequence (P01116 1-169 isoform P01116-2 G12D): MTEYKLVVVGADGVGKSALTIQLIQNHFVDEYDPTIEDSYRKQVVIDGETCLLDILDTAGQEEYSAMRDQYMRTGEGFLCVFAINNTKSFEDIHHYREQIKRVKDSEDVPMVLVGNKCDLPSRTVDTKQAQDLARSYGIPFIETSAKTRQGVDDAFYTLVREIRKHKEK
Experimental: (§1) KRas^WT, KRas^G12A, KRas^G12C, KRas^G12D, KRas^G12R, KRas^G12S, KRas^G12V, KRas^G13D, or KRas^Q61H was used in the assay.
(§2) The ability of a compound to bind to KRas was measured using a TR-FRET displacement assay. Biotinylated KRas (corresponding to amino acids 1-169, produced at Accelegan Inc.) was incubated with custom made Cy5 labelled tracer, terbium streptavidin (Cisbio Inc.) and compound (1% DMSO final) in buffer (50 mM HEPES, pH 7.5, 5 mM MgCl2, 0.005% Tween-20 and 1 mM DTT). After a 60-minute incubation at room temperature, the reaction was measured using a BMG LABTECH CLARIO star Plus via TR-FRET.

KRas^G12V = target: T2, KRas^G12V (Homo sapiens, UniProt P01116, G12V); assay: KRas TR-FRET tracer displacement binding assay, G12V; details: 60-minute incubation
T2 construct: Biotinylated KRas (corresponding to amino acids 1-169, produced at Accelegan Inc.); biotin (biotinylated); purchased Accelegan Inc
T2 sequence (P01116 1-169 isoform P01116-2 G12V): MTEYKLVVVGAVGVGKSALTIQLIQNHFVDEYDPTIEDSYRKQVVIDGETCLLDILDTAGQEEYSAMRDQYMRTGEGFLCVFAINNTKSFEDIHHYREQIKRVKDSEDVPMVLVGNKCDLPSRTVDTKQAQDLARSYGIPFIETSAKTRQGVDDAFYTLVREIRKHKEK
Experimental: as §1, §2

KRas^WT = target: T3, KRas^WT (Homo sapiens, UniProt P01116); assay: KRas TR-FRET tracer displacement binding assay, WT; details: 60-minute incubation
T3 construct: Biotinylated KRas (corresponding to amino acids 1-169, produced at Accelegan Inc.); biotin (biotinylated); purchased Accelegan Inc
T3 sequence (P01116 1-169 isoform P01116-2): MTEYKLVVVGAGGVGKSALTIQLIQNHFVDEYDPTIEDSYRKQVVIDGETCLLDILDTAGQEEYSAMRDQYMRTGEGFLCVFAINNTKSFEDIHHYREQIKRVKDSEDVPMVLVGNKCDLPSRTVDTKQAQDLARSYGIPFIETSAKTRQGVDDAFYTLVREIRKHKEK
Experimental: as §1, §2

KRas^G12C = target: T4, KRas^G12C (Homo sapiens, UniProt P01116, G12C); assay: KRas TR-FRET tracer displacement binding assay, G12C; details: 60-minute incubation
T4 construct: Biotinylated KRas (corresponding to amino acids 1-169, produced at Accelegan Inc.); biotin (biotinylated); purchased Accelegan Inc
T4 sequence (P01116 1-169 isoform P01116-2 G12C): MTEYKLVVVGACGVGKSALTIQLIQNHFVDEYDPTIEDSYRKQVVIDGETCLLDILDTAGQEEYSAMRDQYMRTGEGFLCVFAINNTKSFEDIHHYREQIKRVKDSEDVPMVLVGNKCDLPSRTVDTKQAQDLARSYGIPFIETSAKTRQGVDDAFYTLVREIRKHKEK
Experimental: as §1, §2

KRas^G12S = target: T5, KRas^G12S (Homo sapiens, UniProt P01116, G12S); assay: KRas TR-FRET tracer displacement binding assay, G12S; details: 60-minute incubation
T5 construct: Biotinylated KRas (corresponding to amino acids 1-169, produced at Accelegan Inc.); biotin (biotinylated); purchased Accelegan Inc
T5 sequence (P01116 1-169 isoform P01116-2 G12S): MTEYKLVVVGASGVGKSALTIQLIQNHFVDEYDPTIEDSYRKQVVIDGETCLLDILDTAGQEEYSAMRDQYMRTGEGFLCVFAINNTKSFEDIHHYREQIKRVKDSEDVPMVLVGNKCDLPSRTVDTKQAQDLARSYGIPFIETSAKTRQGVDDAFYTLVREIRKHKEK
Experimental: as §1, §2

[1] = test system: KRas-mediated Phosphorylation of ERK in AsPC-1 cells; assay: Cisbio HTRF pERK assay, AsPC-1 cells; format: cell-based; details: 3 hrs compound, read-out: Inhibition (HTRF IC50 nM) of KRas-mediated Phosphorylation of ERK, AsPC-1
[2] = test system: KRas-mediated Phosphorylation of ERK in H727 cells; assay: Cisbio HTRF pERK assay, H727 cells; format: cell-based; details: 3 hrs compound, read-out: Inhibition (HTRF IC50 nM) of KRas-mediated Phosphorylation of ERK, H727
[3] = test system: KRas-mediated Phosphorylation of ERK in A549 cells; assay: Cisbio HTRF pERK assay, A549 cells; format: cell-based; details: A549 cells, 3 hrs compound, read-out: Inhibition (HTRF IC50 nM) of KRas-mediated Phosphorylation of ERK, A549
[4] = test system: KRas-mediated Phosphorylation of ERK in H358 cells; assay: Cisbio HTRF pERK assay, H358 cells; format: cell-based; details: H358 cells, 3 hrs compound, read-out: Inhibition (HTRF IC50 nM) of KRas-mediated Phosphorylation of ERK, H358
[5] = test system: KRas-mediated Phosphorylation of ERK in HCT116 cells; assay: Cisbio HTRF pERK assay, HCT116 cells; format: cell-based; details: Homo sapiens, HCT-116, 3 h, HCT116 cells, 3 hrs compound; read-out: Inhibition (HTRF IC50 nM) of KRas-mediated Phosphorylation of ERK, HCT116
[6] = test system: KRas-mediated Phosphorylation of ERK in H460 cells; assay: Cisbio HTRF pERK assay, H460 cells; format: cell-based; details: Homo sapiens, NCI-H460, 3 h, H460 cells, 3 hrs compound; read-out: Inhibition (HTRF IC50 nM) of KRas-mediated Phosphorylation of ERK, H460
[7] = test system: KRas-mediated Phosphorylation of ERK in PSN1 cells; assay: Cisbio HTRF pERK assay, PSN1 cells; format: cell-based; details: Homo sapiens, PSN1, 3 h, 3 hour compound, read-out: Inhibition (HTRF IC50 nM) of KRas-mediated Phosphorylation of ERK, PSN1
Experimental: Inhibition of KRas Phosphorylation of ERK (HTRF) by Exemplary Compounds of Formula (I) • Cisbio HTRF Advanced pERK Assay Catalog #64AERPEH • Cell: MKN1, PSN1 • Procedure: • Day 1: Seed 6,000 cells/well −25 μl/well in 384-well white solid bottom plate; RPM1_10% FBS.

N#Cc1c(N)sc2c(F)ccc(-c3c(Cl)cc4c(N5CCCOC6CC65)nc(OC[C@@]56CCCN5C[C@H](F)C6)nc4c3F)c12 (single isomer, unassigned) [Example 212]
IC50 (KRas^G12D): 14 nM
IC50 (KRas^G12V): 11 nM
IC50 (KRas^WT): 6 nM
IC50 (KRas^G12C): 6 nM
IC50 (KRas^G12S): 6 nM
IC50 [1]: 230 nM
IC50 [2]: 357 nM
IC50 [3]: 76 nM
IC50 [4]: 22 nM

N#Cc1c(N)sc2c(F)ccc(-c3c(Cl)cc4c(N5CCCOC6CC65)nc(OC[C@@]56CCCN5C[C@H](F)C6)nc4c3F)c12 (single isomer, unassigned) [Example 213]
IC50 (KRas^G12D): 9 nM
IC50 (KRas^G12V): 4 nM
IC50 (KRas^WT): 11 nM
IC50 (KRas^G12C): 8 nM
IC50 (KRas^G12S): 5 nM
IC50 [1]: 761 nM
IC50 [2]: 767 nM
IC50 [3]: 398 nM
IC50 [4]: 160 nM

CC(Oc1nc(N(C)C)c2cc(F)c(-c3ccc(F)c4sc(N)c(C#N)c34)c(F)c2n1)C12CCCN1CCC2 (single isomer, unassigned; isomer 1) [Example 177, 2-amino-4-(4-(dimethylamino)-6,8-difluoro-2-(1-(tetrahydro-1H-pyrrolizin-7a(5H)-yl)ethoxy)quinazolin-7-yl)-7-fluorobenzo[b]thiophene-3-carbonitrile (isomer 1)]
IC50 (KRas^G12D): 107 nM
IC50 (KRas^G12V): 18 nM
IC50 (KRas^WT): 40 nM
IC50 (KRas^G12C): 36 nM
IC50 (KRas^G12S): 42 nM

CC(Oc1nc(N(C)C)c2cc(F)c(-c3ccc(F)c4sc(N)c(C#N)c34)c(F)c2n1)C12CCCN1CCC2 (single isomer, unassigned; isomer 2) [Example 178, 2-amino-4-(4-(dimethylamino)-6,8-difluoro-2-(1-(tetrahydro-1H-pyrrolizin-7a(5H)-yl)ethoxy)quinazolin-7-yl)-7-fluorobenzo[b]thiophene-3-carbonitrile (isomer 2)]
IC50 (KRas^G12D): 92 nM
IC50 (KRas^G12V): 10 nM
IC50 (KRas^WT): 17 nM
IC50 (KRas^G12C): 20 nM
IC50 (KRas^G12S): 28 nM

C=Cc1cc2c(N3CCCn4nc(C(=O)N(C)C)cc4C3)nc(OC[C@@]34CCCN3C[C@H](F)C4)nc2c(F)c1-c1ccc(F)c2sc(N)c(C#N)c12 [Example 176, 5-(7-(2-amino-3-cyano-7-fluorobenzo[b]thiophen-4-yl)-8-fluoro-2-(((2R,7aS)-2-fluorotetrahydro-1H-pyrrolizin-7a(5H)-yl)methoxy)-6-vinylquinazolin-4-yl)-N,N-dimethyl-5,6,7,8-tetrahydro-4H-pyrazolo[1,5-a][1,4]diazepine-2-carboxamide]
IC50 (KRas^G12D): < 2 nM
IC50 (KRas^G12V): < 2 nM
IC50 (KRas^WT): < 2 nM
IC50 (KRas^G12C): < 2 nM
IC50 (KRas^G12S): < 2 nM
IC50 ([1]; Homo sapiens, ASPC1, 3 h): 10 nM
IC50 ([2]; Homo sapiens, NCI-H727, 3 h): 23 nM
IC50 [5]: 135 nM
IC50 ([3]; Homo sapiens, A549, 3 h): 72 nM
IC50 [6]: 101 nM
IC50 ([4]; Homo sapiens, NCI-H358, 3 h): 8 nM

C[C@@]1(O)CCCN(c2nc(OC[C@@]34CCCN3C[C@H](F)C4)nc3c(F)c(-c4ccc(F)c5sc(N)c(C#N)c45)c(F)cc23)C1 [Example 198, 2-amino-4-(6,8-difluoro-2-(((2R,7aS)-2-fluorotetrahydro-1H-pyrrolizin-7a(5H)-yl)methoxy)-4-((R)-3-hydroxy-3-methylpiperidin-1-yl)quinazolin-7-yl)-7-fluorobenzo[b]thiophene-3-carbonitrile]
IC50 (KRas^G12D): 9 nM
IC50 (KRas^G12V): 13 nM
IC50 (KRas^WT): 7 nM
IC50 (KRas^G12C): 12 nM
IC50 (KRas^G12S): 11 nM
IC50 ([1]; Homo sapiens, ASPC1, 3 h): 253 nM
IC50 ([2]; Homo sapiens, NCI-H727, 3 h): 717 nM
IC50 [5]: 275 nM
IC50 ([3]; Homo sapiens, A549, 3 h): 326 nM
IC50 [6]: 170 nM
IC50 ([4]; Homo sapiens, NCI-H358, 3 h): 125 nM

N#Cc1c(N)sc2c(F)ccc(-c3c(Cl)cc4c(NCCS(N)(=O)=O)nc(OC[C@@]56CCCN5C[C@H](F)C6)nc4c3F)c12 [Example 201, 2-((7-(2-amino-3-cyano-7-fluorobenzo[b]thiophen-4-yl)-6-chloro-8-fluoro-2-(((2R,7aS)-2-fluorotetrahydro-1H-pyrrolizin-7a(5H)-yl)methoxy)quinazolin-4-yl)amino)ethane-1-sulfonamide]
IC50 (KRas^G12D): 3 nM
IC50 (KRas^G12V): 3 nM
IC50 (KRas^WT): 3 nM
IC50 (KRas^G12C): 3 nM
IC50 (KRas^G12S): 2 nM
IC50 ([1]; Homo sapiens, ASPC1, 3 h): 4690 nM
IC50 ([2]; Homo sapiens, NCI-H727, 3 h): > 10000 nM
IC50 [5]: > 10000 nM
IC50 ([3]; Homo sapiens, A549, 3 h): > 10000 nM
IC50 [6]: 5340 nM
IC50 ([4]; Homo sapiens, NCI-H358, 3 h): 1780 nM
IC50 [7]: > 10000 nM

N#Cc1c(N)sc2c(F)ccc(-c3c(Cl)cc4c(N5CCCCC(F)C5)nc(OC[C@@]56CCCN5C[C@H](F)C6)nc4c3F)c12 (stereo partly drawn) [Example 204, 2-amino-4-(6-chloro-8-fluoro-4-(3-fluoroazepan-1-yl)-2-(((2R,7aS)-2-fluorotetrahydro-1H-pyrrolizin-7a(5H)-yl)methoxy)quinazolin-7-yl)-7-fluorobenzo[b]thiophene-3-carbonitrile]
IC50 (KRas^G12D): 3 nM
IC50 (KRas^G12V): 3 nM
IC50 (KRas^WT): 2 nM
IC50 (KRas^G12C): 3 nM
IC50 (KRas^G12S): < 2 nM
IC50 ([1]; Homo sapiens, ASPC1, 3 h): 16 nM
IC50 ([2]; Homo sapiens, NCI-H727, 3 h): 18 nM
IC50 [5]: 25 nM
IC50 ([3]; Homo sapiens, A549, 3 h): 34 nM
IC50 [6]: 23 nM
IC50 ([4]; Homo sapiens, NCI-H358, 3 h): 6 nM
IC50 [7]: 1180 nM

CN(C)C(=O)c1cc2n(n1)CCCN(c1nc(OC[C@@]34CCCN3C[C@H](F)C4)nc3c(F)c(-c4ccc(F)c5sc(N)c(C#N)c45)c(C4CC4)cc13)C2 [Example 207, 5-(7-(2-amino-3-cyano-7-fluorobenzo[b]thiophen-4-yl)-6-cyclopropyl-8-fluoro-2-(((2R,7aS)-2-fluorotetrahydro-1H-pyrrolizin-7a(5H)-yl)methoxy)quinazolin-4-yl)-N,N-dimethyl-5,6,7,8-tetrahydro-4H-pyrazolo[1,5-a][1,4]diazepine-2-carboxamide]
IC50 (KRas^G12D): 2 nM
IC50 (KRas^G12V): < 2 nM
IC50 (KRas^WT): < 2 nM
IC50 (KRas^G12C): < 2 nM
IC50 (KRas^G12S): < 2 nM
IC50 ([1]; Homo sapiens, ASPC1, 3 h): 3 nM
IC50 ([2]; Homo sapiens, NCI-H727, 3 h): 11 nM
IC50 [5]: 42 nM
IC50 ([3]; Homo sapiens, A549, 3 h): 22 nM
IC50 [6]: 34 nM
IC50 ([4]; Homo sapiens, NCI-H358, 3 h): 3 nM
IC50 [7]: 811 nM

N#Cc1c(N)sc2c(F)ccc(-c3c(C4CC4)cc4c(N5C[C@H]6CC[C@@H](C5)N6)nc(OC[C@@]56CCCN5C[C@H](F)C6)nc4c3F)c12 [Example 208, 4-(4-((1R,5S)-3,8-diazabicyclo[3.2.1]octan-3-yl)-6-cyclopropyl-8-fluoro-2-(((2R,7aS)-2-fluorotetrahydro-1H-pyrrolizin-7a(5H)-yl)methoxy)quinazolin-7-yl)-2-amino-7-fluorobenzo[b]thiophene-3-carbonitrile]
IC50 (KRas^G12D): < 2 nM
IC50 (KRas^G12V): 10.4 nM
IC50 (KRas^WT): 4 nM
IC50 (KRas^G12C): 7 nM
IC50 (KRas^G12S): 4 nM
IC50 ([1]; Homo sapiens, ASPC1, 3 h): 4 nM
IC50 ([2]; Homo sapiens, NCI-H727, 3 h): 3280 nM
IC50 [5]: 90 nM
IC50 ([3]; Homo sapiens, A549, 3 h): 418 nM
IC50 [6]: 260 nM
IC50 ([4]; Homo sapiens, NCI-H358, 3 h): 167 nM
IC50 [7]: 2390 nM

CC1CN(C)CCCN1c1nc(N(C)C)c2cc(Cl)c(-c3ccc(F)c4sc(N)c(C#N)c34)c(F)c2n1 (stereo not shown) [Example 217, 2-amino-4-(6-chloro-2-(2,4-dimethyl-1,4-diazepan-1-yl)-4-(dimethylamino)-8-fluoroquinazolin-7-yl)-7-fluorobenzo[b]thiophene-3-carbonitrile]
IC50 (KRas^G12D): 959 nM
IC50 (KRas^G12V): 75 nM
IC50 (KRas^WT): 251 nM
IC50 (KRas^G12C): 184 nM
IC50 (KRas^G12S): 275 nM
